The source of these data is ChEMBL document CHEMBL5523736, “The First Discovery of Marine Polyoxygenated Cembranolides as Potential Agents for the Treatment of Ulcerative Colitis” (J Med Chem, 2024).

The source made the active and inactive calls. The rule behind the calls is not given here.

Series [1] concerns Mus musculus. Nature of the series: Effect on DSS-induced body weight loss in ulcerative colitis male C57BL/6J mouse model at 15 mg/kg, po administered for 8 days. Format: functional, organism-based. The conditions noted are these: time 8.0 day.
Series [2] concerns RAW264.7. Description: Inhibition of NF-kappaB transcriptional activity in LPS-induced mouse RAW264.7 cells at 20 uM by luciferase based assay. The class given is cell-based.
Series [3] concerns RAW264.7. Nature of the series: Antiinflammatory activity in LPS-induced mouse RAW264.7 cells assessed as inhibition of IL-6 production at 20 uM by ELISA. Format: functional, cell-based. Background: An ELISA detects its analyte on a solid surface through an enzyme-linked reagent.
A short description of series [4]: Cytotoxicity against mouse RAW264.7 cells assessed as cell viability at 20 uM incubated for 24 hrs by CCK8 assay relative to control. The class given is toxicity, cell-based. The conditions noted are these: read-out: Activity. On the technique in general: Tetrazolium assays rely on reduction of a dye to a coloured formazan, in cell work by metabolically active cells.

The test system of series [5] is RAW264.7. Nature of the series: Antiinflammatory activity in mouse RAW264.7 cells assessed as inhibition of LPS-induced NO production at 20 uM incubated for 24 hrs relative to control. The class given is functional.
Series [6] concerns Mus musculus. Nature of the series: Antiinflammatory activity against DSS-induced ulcerative colitis C57BL/6J mouse model assessed as increase in […] protein level in colon at 15 mg/kg, po administered for 8 days by Western blot analysis. Format: functional, organism-based. The conditions noted are these: time 8.0 day. On the technique in general: A western blot detects proteins with antibodies after separation by electrophoresis.

The test system of series [7] is RAW264.7. Nature of the series: Antiinflammatory activity in mouse RAW264.7 cells assessed as inhibition of LPS-induced NO production incubated for 24 hrs. The class given is functional, cell-based. The conditions noted are these: RAW264.7, 24 h.
Series [8] deals with Mus musculus. Description: Antiinflammatory activity against DSS-induced ulcerative colitis C57BL/6J mouse model assessed as reduction in H and E histopathological score at 15 mg/kg, po administered for 8 days by H and E staining based analysis. Format: functional, organism-based. Particulars: time 8.0 day.
Series [9] deals with RAW264.7. Nature of the series: Antiinflammatory activity in LPS-induced mouse RAW264.7 cells assessed as reduction in TNF-alpha mRNA expression level at 20 uM by qRT-PCR analysis. The class given is functional, cell-based.
Series [10] deals with Mus musculus. Nature of the series: Antiinflammatory activity against DSS-induced ulcerative colitis C57BL/6J mouse model assessed as reduction in DAI score at 15 mg/kg, po administered for 8 days. Format: functional, organism-based. Particulars: time 8.0 day.
The target in series [11] is Transcription factor p65 (Mus musculus) (UniProt Q04207). Description: Inhibition of p65 activation in LPS-induced mouse RAW264.7 cells at 20 uM by Western blot analysis. The class given is cell-based.
Chain of Transcription factor p65 (Mus musculus) (Q04207 whole entry): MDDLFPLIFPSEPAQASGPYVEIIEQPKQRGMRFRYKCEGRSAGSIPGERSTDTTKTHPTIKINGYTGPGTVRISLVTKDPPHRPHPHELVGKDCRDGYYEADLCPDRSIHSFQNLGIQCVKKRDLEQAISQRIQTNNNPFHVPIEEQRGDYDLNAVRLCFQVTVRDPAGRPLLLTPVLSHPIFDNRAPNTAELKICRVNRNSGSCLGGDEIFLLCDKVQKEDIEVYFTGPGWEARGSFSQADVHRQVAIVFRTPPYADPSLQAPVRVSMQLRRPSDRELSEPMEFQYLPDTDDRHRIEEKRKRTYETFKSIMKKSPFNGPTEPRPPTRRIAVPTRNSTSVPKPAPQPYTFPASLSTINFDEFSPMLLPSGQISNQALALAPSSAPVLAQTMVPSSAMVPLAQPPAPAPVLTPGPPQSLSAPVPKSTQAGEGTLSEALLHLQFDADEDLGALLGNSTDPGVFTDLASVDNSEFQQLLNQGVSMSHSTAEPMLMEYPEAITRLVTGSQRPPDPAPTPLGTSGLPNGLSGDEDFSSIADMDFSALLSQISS
In series [12] the test system is Mus musculus. Nature of the series: Antiinflammatory activity against DSS-induced ulcerative colitis C57BL/6J mouse model assessed as reduction in inflammatory cell infiltration in colon at 15 mg/kg, po administered for 8 days by Hand E staining based histopathological analysis. The class given is functional, organism-based. Particulars: time 8.0 day.
In series [13] the test system is RAW264.7. Nature of the series: Antiinflammatory activity in LPS-induced mouse RAW264.7 cells assessed as reduction in IL-6 mRNA expression level at 20 uM by qRT-PCR analysis. Format: functional, cell-based.
The subject of series [14] is Mus musculus. Nature of the series: Antiinflammatory activity against DSS-induced ulcerative colitis C57BL/6J mouse model assessed as reduction in Ccl2 mRNA expression level in colon at 15 mg/kg, po administered for 8 days by qRT-PCR analysis. The class given is functional, organism-based. Particulars: time 8.0 day.
Series [15] has as its system Mus musculus. Nature of the series: Antiinflammatory activity against DSS-induced ulcerative colitis C57BL/6J mouse model assessed as increase in OCCLUDIN protein level in colon at 15 mg/kg, po administered for 8 days by Western blot analysis. Format: functional, organism-based. Particulars: time 8.0 day.
For series [16], the system named is RAW264.7. Description: Inhibition of ERK phosphorylation in LPS-induced mouse RAW264.7 cells at 20 uM by Western blot analysis. The class given is cell-based.
The subject of series [17] is RAW264.7. Description: Antiinflammatory activity in LPS-induced mouse RAW264.7 cells assessed as reduction in IL-1beta mRNA expression level at 20 uM by qRT-PCR analysis. Format: functional, cell-based.
Series [18] has as its system RAW264.7. Nature of the series: Antiinflammatory activity in LPS-induced mouse RAW264.7 cells assessed as reduction in iNOS mRNA expression level at 20 uM by qRT-PCR analysis. Format: functional, cell-based.
Series [19] concerns Mus musculus. Description: Antiinflammatory activity against DSS-induced ulcerative colitis C57BL/6J mouse model assessed as increase in CLAUDIN-1 protein level in colon at 15 mg/kg, po administered for 8 days by Western blot analysis. Particulars: time 8.0 day. Format: functional, organism-based.
Series [20] concerns Mus musculus. Description: Antiinflammatory activity against DSS-induced ulcerative colitis C57BL/6J mouse model assessed as reduction in iNOS mRNA expression level in colon at 15 mg/kg, po administered for 8 days by qRT-PCR analysis. The conditions noted are these: time 8.0 day. Format: functional, organism-based.
Series [21] concerns Mus musculus. Nature of the series: Antiinflammatory activity against DSS-induced ulcerative colitis C57BL/6J mouse model assessed as reduction in IL-1beta mRNA expression level in colon at 15 mg/kg, po administered for 8 days by qRT-PCR analysis. Format: functional, organism-based. Particulars: time 8.0 day.
The subject of series [22] is RAW264.7. Description: Inhibition of P38 phosphorylation in LPS-induced mouse RAW264.7 cells at 20 uM by Western blot analysis. Format: cell-based.
Series [23] relates to Mus musculus. Description: Antiinflammatory activity against DSS-induced ulcerative colitis C57BL/6J mouse model assessed as reduction in intestinal epithelial destruction in colon at 15 mg/kg, po administered for 8 days by Hand E staining based histopathological analysis. Format: functional, organism-based. Particulars: time 8.0 day.
In series [24] the target is c-Jun N-terminal kinase (Mus musculus) (UniProt Q91Y86+Q9WTU6+Q61831). Nature of the series: Inhibition of JNK phosphorylation in LPS-induced mouse RAW264.7 cells at 20 uM by Western blot analysis. Format: cell-based.
Chain of c-Jun N-terminal kinase (Mus musculus) (Q61831 whole entry, looked up): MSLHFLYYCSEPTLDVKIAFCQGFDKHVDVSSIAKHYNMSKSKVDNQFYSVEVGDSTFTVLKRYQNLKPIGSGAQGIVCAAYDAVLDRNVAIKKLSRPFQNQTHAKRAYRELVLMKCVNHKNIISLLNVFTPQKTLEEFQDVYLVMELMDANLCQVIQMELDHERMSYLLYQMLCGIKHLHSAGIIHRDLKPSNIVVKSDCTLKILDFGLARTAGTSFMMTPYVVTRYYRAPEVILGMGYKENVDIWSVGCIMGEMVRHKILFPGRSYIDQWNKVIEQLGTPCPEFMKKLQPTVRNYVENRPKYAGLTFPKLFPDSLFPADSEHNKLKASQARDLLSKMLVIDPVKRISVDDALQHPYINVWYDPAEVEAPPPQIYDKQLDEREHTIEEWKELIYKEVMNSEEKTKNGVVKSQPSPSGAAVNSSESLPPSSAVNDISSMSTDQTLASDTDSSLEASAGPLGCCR
Chain of c-Jun N-terminal kinase (Mus musculus) (Q91Y86 whole entry, looked up): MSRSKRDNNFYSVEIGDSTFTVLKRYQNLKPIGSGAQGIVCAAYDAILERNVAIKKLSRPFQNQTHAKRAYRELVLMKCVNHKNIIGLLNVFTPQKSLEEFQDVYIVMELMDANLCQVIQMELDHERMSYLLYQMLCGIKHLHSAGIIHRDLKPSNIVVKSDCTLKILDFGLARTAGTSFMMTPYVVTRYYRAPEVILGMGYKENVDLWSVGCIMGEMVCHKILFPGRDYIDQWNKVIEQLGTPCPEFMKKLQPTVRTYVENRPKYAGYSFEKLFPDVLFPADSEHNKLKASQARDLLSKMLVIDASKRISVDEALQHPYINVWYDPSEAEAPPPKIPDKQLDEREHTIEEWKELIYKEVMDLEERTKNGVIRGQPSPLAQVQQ
Chain of c-Jun N-terminal kinase (Mus musculus) (Q9WTU6 whole entry, looked up): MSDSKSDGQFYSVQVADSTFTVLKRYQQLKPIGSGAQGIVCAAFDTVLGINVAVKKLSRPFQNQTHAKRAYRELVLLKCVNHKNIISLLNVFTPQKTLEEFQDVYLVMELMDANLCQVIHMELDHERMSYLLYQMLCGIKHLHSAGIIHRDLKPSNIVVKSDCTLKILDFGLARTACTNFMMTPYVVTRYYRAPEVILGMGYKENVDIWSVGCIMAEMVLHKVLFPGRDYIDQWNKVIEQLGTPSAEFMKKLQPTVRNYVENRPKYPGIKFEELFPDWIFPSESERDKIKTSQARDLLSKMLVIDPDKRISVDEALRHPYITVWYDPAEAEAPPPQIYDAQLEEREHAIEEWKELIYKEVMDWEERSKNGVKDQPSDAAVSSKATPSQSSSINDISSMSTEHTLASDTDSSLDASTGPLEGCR
Series [25] has as its system Mus musculus. Nature of the series: Antiinflammatory activity against DSS-induced ulcerative colitis C57BL/6J mouse model assessed as reduction in goblet cell loss in colon at 15 mg/kg, po administered for 8 days by alcian blue staining based analysis. The class given is functional, organism-based. Particulars: time 8.0 day.
The subject of series [26] is RAW264.7. Nature of the series: Antiinflammatory activity in LPS-induced mouse RAW264.7 cells assessed as inhibition of TNF-alpha production at 20 uM by ELISA. Format: functional, cell-based.
For series [27], the system named is Mus musculus. Nature of the series: Antiinflammatory activity against DSS-induced ulcerative colitis C57BL/6J mouse model assessed as reduction in TNF-alpha mRNA expression level in colon at 15 mg/kg, po administered for 8 days by qRT-PCR analysis. The class given is functional, organism-based. Particulars: time 8.0 day.
The test system of series [28] is RAW264.7. Description: Antiinflammatory activity in LPS-induced mouse RAW264.7 cells assessed as reduction in Ccl7 gene expression by heat map analysis. The class given is functional, cell-based.
The subject of series [29] is RAW264.7. Nature of the series: Antiinflammatory activity in LPS-induced mouse RAW264.7 cells assessed as reduction in IL-1beta gene expression by heat map analysis. Format: functional, cell-based.
The subject of series [30] is RAW264.7. Nature of the series: Antiinflammatory activity in LPS-induced mouse RAW264.7 cells assessed as reduction in Cxcl10 gene expression by heat map analysis. The class given is functional, cell-based.
In series [31] the test system is RAW264.7. Description: Antiinflammatory activity in LPS-induced mouse RAW264.7 cells assessed as reduction in Ccl2 gene expression by heat map analysis. Format: functional, cell-based.
The test system of series [32] is RAW264.7. Description: Antiinflammatory activity in LPS-induced mouse RAW264.7 cells assessed as reduction in IL-6 gene expression by heat map analysis. Format: functional, cell-based.
Series [33] concerns Mus musculus. Description: Effect on DSS-induced body weight loss in ulcerative colitis male C57BL/6J mouse model at 100 mg/kg, po administered for 8 days. Format: functional, organism-based. The conditions noted are these: time 8.0 day.

As a reminder, the inhibition is the relative decrease from the control value, in per cent. For orientation: IC50 means the point on the concentration scale where inhibition reaches its midpoint. In the case of `C=C1C(=O)O[C@]2(C)CC[C@@H]1C[C@@H]1O[C@@]1(C)CC/C=C(\C)CC[C@H]2OC(C)=O`, the result in the series on Mus musculus [1] was inactive. Further, the inhibition result (with RAW264.7 [2]; in [11]; in the series with RAW264.7 [16]; in [24]) was “Active” in each case. Moreover, the outcome in the series on RAW264.7 [3], in the series with Mus musculus [6], in the series on Mus musculus [8], with RAW264.7 [9], with Mus musculus [10] and with Mus musculus [12] was Active. For the same compound, the result with RAW264.7 [13], in the series on Mus musculus [14], with Mus musculus [15], in the series on RAW264.7 [17], in the series on RAW264.7 [18] and in the series on Mus musculus [19] was Active. Besides, the result in the series on Mus musculus [20], in the series with Mus musculus [21], with Mus musculus [23], in the series with Mus musculus [25], in the series on RAW264.7 [26] and with Mus musculus [27] was Active. Besides, in [4], the viability at 24 h, 20 µM was 89%. Moreover, the inhibition at 20 µM in the series on RAW264.7 [5] turned out to be 139%. Also, the IC50 in the series with RAW264.7 [7] was 1150 nM. For the same compound, the inhibition entry in the series on RAW264.7 [22] was “inactive”.

Take `C=C1C(=O)O[C@]2(C)CC[C@@H]1C[C@@H]1O[C@@]1(C)CC/C=C(\C)CCC2=O`: in the series with Mus musculus [1], the result was inactive. In addition, the inhibition entry (with RAW264.7 [2]; in series [11]; with RAW264.7 [16]; in series [24]) was “Active” throughout. Moreover, the result in the series on RAW264.7 [3], in the series with Mus musculus [6], in the series on Mus musculus [8], in the series with RAW264.7 [9], with Mus musculus [10] and in the series with Mus musculus [12] was Active. Besides, the result in the series with RAW264.7 [13], in the series on Mus musculus [14], in the series with Mus musculus [15], with RAW264.7 [17], in the series on RAW264.7 [18] and in the series with Mus musculus [19] was Active. The outcome in the series on Mus musculus [20], in the series on Mus musculus [21], in the series on RAW264.7 [28], with Mus musculus [23], in the series with RAW264.7 [29] and in the series with RAW264.7 [30] was Active. Also, the result in the series with RAW264.7 [31], with Mus musculus [25], in the series with RAW264.7 [32], in the series with RAW264.7 [26] and with Mus musculus [27] was Active. Moreover, the viability at 24 h, 20 µM in [4] amounted to 82.7%. For the same compound, the inhibition at 20 µM in the series on RAW264.7 [5] stood at 134%. The IC50 with RAW264.7 [7] is 900 nM. Further, in the series with RAW264.7 [22], the inhibition entry was “inactive”.

Regarding `Nc1ccc(O)c(C(=O)O)c1`, the outcome in the series on Mus musculus [33] was inactive.
